Measured values as given in patent US11576914B2, “Drug for treating or preventing disorder caused by TGF-β signaling, and application thereof” (THE DOSHISHA, priority 2017, dated 2023).
“And” between values parts separate entries of the source, which are not always exact repeats. Equal entries are not always repeated. “Also recorded” adds a separate entry of the source.

Tests used:
[1] = system: Fuchs' endothelial corneal dystrophy patient-derived immortalized corneal endothelial cells; assay: Cell damage inhibitory effect on iFECD stimulated with TGF-β2 (phase contrast microscope); assay type: cell-based, human
Procedure: The medium was removed from the culture dish in which Fuchs' endothelial corneal dystrophy patient-derived immortalized corneal endothelial cells (hereinafter, referred to as disease model cells) were being cultured, and the cells were supplemented with 1×PBS (−) that was preheated to 37° C., and were washed. This operation was repeated twice. The cells were supplemented with 1×PBS (−) again and incubated for 5 minutes at 37° C. (5% CO2). After the PBS (−) was removed, the cells were supplemented with 0.05% Trypsin-EDTA (nacalai tesque, 32778-34) and incubated for 5 minutes at 37° C. (5% CO2). The cells were then suspended in a medium, and collected by centrifugation at 1500 rpm for 3 minutes. DMEM (nacalai tesque, 08456-36)+10% FBS (Biowest, S1820-500)+1% P/S (nacalai tesque, 26252-94) was used as the medium. The disease model cells were seeded in a 6-well plate at a rate of 1.5×10^5 cells per well and cultured at 37° C. (5% CO2) for 48 hours. DMEM+10% FBS+1% P/S was used as the medium.
After 48 hours, the medium was removed, and AKP-001, SB203580 (Cayman, 13067), PH-797804 (Selleck Chemicals, S2726) and VX-702 (Selleck Chemicals, 56005) were added to DMEM+2% FBS+1% P/S so that the final concentration was 0.01, 0.03, 0.1, 0.3, 1, 3, 10 and 30 μM, followed by culturing as 24-hour pretreatment. After 24 hours, the medium was removed, and AKP-001, 5B203580 (Cayman, 13067), PH-797804 (Selleck Chemicals, S2726), or VX-702 (Selleck Chemicals, S6005), together with 100 ng/ml Recombinant Human TGF-β2 (R&D systems, RND302-B2-002), were added to DMEM+2% FBS+1% P/S so that the final concentration was 0.01 μM, 0.03 μM, 0.1 μM, 0.3 μM, 1 μM, 3 μM, 10 μM, and 30 μM, followed by culturing for 24 hours. After 24 hours, cell damage was evaluated by observation with a phase contrast microscope. As a control, immortalized corneal endothelial cells that were not stimulated with TGF-β were used.

rabbits = assay: Eye irritation testing (AKP-001 instillation); assay type: in vivo, rabbit
Procedure: Rabbits that met the above criteria were used in the testing. The testing was carried out using a total of 4 rabbits. Fifty μl of 0.1 mM AKP-001 was instilled into the right eyes of the rabbits, and the eyes were maintained in a closed state for 30 seconds. The left eyes were instilled with a vehicle in the same manner. This operation was performed every 30 minutes and 10 times in total.
The anterior eye part was observed before and after the instillation using a slit lamp microscope (SL-D7, Topcon). The anterior eye part was stained with fluorescein sodium test paper (Showa Yakuhin Kako Co., Ltd.) and observed with a slit lamp microscope with regard to the presence or absence of corneal epithelial disorder. Further, the corneal thickness, corneal shape, and corneal volume thereof were analyzed using Pentacam® HR (OCULUS). The corneal endothelium was observed using a scanning slit-type, contact-type corneal endothelium specular microscope (Konan Medical, Inc.). Further, the central corneal thickness was measured using an ultrasonic pachymeter (SP-100, Tomey Corporation), and the intraocular pressure was measured using Tonovet® (ME Technica).
Corneal transparency was evaluated by the following Grading.
Opacity: degree of turbidity (the most turbid area is read.)

corneal endothelium = assay: Histological analysis of the corneal endothelium after instillation; assay type: in vivo
From the text: Rabbits were euthanized, and then their eyes were removed and histologically analyzed. Expression of markers related to corneal endothelial functions was confirmed by immunostaining. The sclerocornea fragments were fixed with 0.5% paraformaldehyde and then blocked with 1% bovine serum albumin. As primary antibodies, ZO-1 antibody (Life Technologies) and N-cadherin antibody (BD Biosciences), which are indicators of the barrier function of corneal endothelial cells, and Na^+/K^+-ATPase antibody (MILLIPORE), which is an indicator of pump functions, were added, followed by standing at 4° C. overnight. […] Further, nuclear staining was performed using DAPI (Dojindo). To observe the cell morphology, actin was stained using Phalloidin (Life Technologies). The stained sclerocornea fragments were mounted in slide glasses and observed using a confocal fluorescence microscope (TCS SPE, Leica).
In addition, rabbits were euthanized, and then their eyes were removed. To assess cell death, the sclerocornea fragments were stained with Annexin V (Zymed Laboratories) and PI (Zymed Laboratories), fixed with 0.5% paraformaldehyde, and nuclear stained with DAPI (Dojindo). The stained sclerocornea fragments were mounted in slide glass and observed using a confocal fluorescence microscope (TCS SPE, Leica). Staurosporine (10 μM, Merck Millipore) was administered into the anterior chamber of a rabbit eyeball, and after 24 hours, it was used as a positive control.

[2] = system: Fuchs corneal endothelial dystrophy (FECD) model mice (Col8a2 Q455K/Q455K); assay: In vivo evaluation in FECD model mice; conditions: ophthalmic solution 0.1 mM, 1 mM, 10 mM, 2 μl twice daily, 3 months
Procedure: In the present example, mice having a type 8 collagen mutation (Col8a2^Q455K/Q455K) are used as Fuchs corneal endothelial dystrophy (FECD) model mice.
Grading of the severity of FECD was performed on the basis of corneal endothelium images prior to instillation testing, and FECD model mice aged 20-24 weeks with similar symptoms were used. The prepared AKP-001 ophthalmic solution (0.1 mM, 1 mM, and 10 mM) is instilled into the left and right eyes, 2 μl at a time, twice daily in the morning and evening for 45 mice. Otsuka Normal Saline (Otsuka Pharmaceutical Co., Ltd.) is used as a control. The instillation period is set to be 3 months, during which the person in charge of the experimentation carries out the experimentation in a blinded state regarding the AKP-001 ophthalmic solution and the control ophthalmic solution.
Prior to the start of the instillation testing, corneal endothelial images are observed with a contact corneal endothelial specular (KSSP slit-scanning wide-field contact specular microscope (Konan medical Inc., Hyogo, Japan)) to conduct grading. After starting the instillation testing, the corneal endothelial images of the mice are observed once every 4 weeks using the contact corneal endothelial specular to evaluate the effectiveness of the AKP-001 ophthalmic solution.

[3] = prior to and after 10 instillations

O=C(Cc1c(F)cccc1Cl)Nc1onc(-c2ccc(F)cc2)c1-c1ccncn1 [AKP-001, 5-[(2-chloro-6-fluorophenyl)acetylamino]-3-(4-fluorophenyl)-4-(4-pyrimidinyl)isoxazole]
damage inhibitory effect for the corneal endothelial cells ([1]; 0.01 μM): observed | disorder in the corneal endothelial cells ([1]; 0.1 μM, 0.3 μM, 1 μM and 3 μM, iFECD, pretreatment, TGF-β2 stimulation): effectively suppressed | cell damage inhibitory effect for the corneal endothelial cells ([1]; at sub-μM): exerted an inhibitory effect; also recorded: able to suppress cell damage | corneal thickness (Pentacam HR) (rabbits; 0.1 mM instilled 10 times): No obvious changes | epithelial disorder of the keratoconjunctiva, fluorescein staining (rabbits; 0.1 mM instilled 10 times): no epithelial disorder of the stained keratoconjunctiva was observed | hyperemia (rabbits; 0.1 mM instilled 10 times): no hyperemia was observed | inflammation of the anterior eye part (rabbits; 0.1 mM instilled 10 times): no inflammation or the like was observed; also recorded: no inflammation of the anterior eye part was observed | shape of the cornea (Scheimpflug images) (rabbits; 0.1 mM instilled 10 times): No obvious change | corneal endothelium, specular microscope images (rabbits; 10 instillations): No obvious changes | cornea, slit lamp microscope (rabbits; 50 μl of 0.1 mM instilled 10 times every 30 minutes): transparent | corneal transparency score (rabbits; before and after 10 instillations, all the corneas): zero and 0 | central corneal thickness (ultrasonic pachymeter) (rabbits; [3]): No significant changes | corneal volume (10 mm diameter, Pentacam HR) (rabbits; [3]): No significant changes | intraocular pressure (Tonovet) (rabbits; [3]): No significant changes | N-cadherin immunostaining (corneal endothelium; eyeball instilled 10 times): Expression along the cell membrane | Na+/K+-ATPase immunostaining (corneal endothelium; eyeball instilled 10 times): Expression along the cell membrane | ZO-1 immunostaining (corneal endothelium; eyeball instilled 10 times): Expression along the cell membrane | actin staining, form of the corneal endothelium (corneal endothelium; eyeball instilled 10 times): polygonal paving stones | Annexin V and PI staining (cell death) (corneal endothelium; rabbit, in vivo): Neither staining with Annexin V nor PI was observed | decrease in corneal endothelial cell density compared to the control [2]: suppressed | percentage of the area of guttae compared to the control [2]: decreased
